According to PubChem BioAssay AID2060900 (Molecular Pharmacology Branch, DTP, NCI, 2025):
Values belong to the compound of their own block, whether it stands above or below them.

Test system: 521955-158-R2-J5-PDC complex spheroids, viability
Test: Anticancer human tumor 521955-158-R2-J5-PDC patient-derived pancreatic carcinoma cell line growth inhibition [RAS]
Conditions: for IC50: curve of first compound; for viability, T/C: stronger effect = lower value
Summary of the method: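 Tumour cells grown as complex spheroids with HUVEC endothelial cells and mesenchymal stem cells, treated with RAS pathway inhibitor combinations. Each agent spans half-log steps from near clinical Cmax, or 10 microM where Cmax is unknown.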
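Further: compound exposure lasted seven days before the viability read.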
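Wherever viability, T/C is given: spheroids also contain HUVEC endothelial cells and mesenchymal stem cells as stroma.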

- IC50 (second compound 0.000949 µM): 2.25 nM
- IC50 (second compound 0.003 µM): 2.41 nM
- IC50 (second compound 0.00949 µM): 2.52 nM
- IC50 (second compound 0.03 µM): 2.53 nM
- IC50 (second compound 0.0949 µM): 2.64 nM
- IC50 (second compound 0.3 µM): 1.7 nM
SMILES: CCc1c2c(nc3ccc(O)cc13)-c1cc3c(c(=O)n1C2)COC(=O)[C@]3(O)CC + CCn1c(-c2cccnc2C(C)OC)c2c3cc(ccc31)N1CCOC(CC(NC(=O)C(C(C)C)N(C)C(=O)C3(F)CCN(C(=O)C#CC(C)(C)N(C)C)CC3)C(=O)N3CCCC(N3)C(=O)OCC(C)(C)C2)C1
- viability, T/C (second compound 0.000949 µM, first compound 0.000949 µM): 97.8%
- viability, T/C (second compound 0.000949 µM, first compound 0.003 µM): 34.1%
- viability, T/C (second compound 0.000949 µM, first compound 0.00949 µM): 12.3%
- viability, T/C (second compound 0.000949 µM, first compound 0.03 µM): 5.82%
- viability, T/C (second compound 0.000949 µM, first compound 0.0949 µM): 6.17%
- viability, T/C (second compound 0.000949 µM, first compound 0.3 µM): 6.87%
- viability, T/C (second compound 0.003 µM, first compound 0.000949 µM): 92.6%
- viability, T/C (second compound 0.003 µM, first compound 0.003 µM): 39.6%
- viability, T/C (second compound 0.003 µM, first compound 0.00949 µM): 16.9%
- viability, T/C (second compound 0.003 µM, first compound 0.03 µM): 5.84%
- viability, T/C (second compound 0.003 µM, first compound 0.0949 µM): 4.8%
- viability, T/C (second compound 0.003 µM, first compound 0.3 µM): 7.45%
- viability, T/C (second compound 0.00949 µM, first compound 0.000949 µM): 104%
- viability, T/C (second compound 0.00949 µM, first compound 0.003 µM): 40.5%
- viability, T/C (second compound 0.00949 µM, first compound 0.00949 µM): 14.4%
- viability, T/C (second compound 0.00949 µM, first compound 0.03 µM): 8.96%
- viability, T/C (second compound 0.00949 µM, first compound 0.0949 µM): 6.33%
- viability, T/C (second compound 0.00949 µM, first compound 0.3 µM): 7.48%
- viability, T/C (second compound 0.03 µM, first compound 0.000949 µM): 72.7%
- viability, T/C (second compound 0.03 µM, first compound 0.003 µM): 46.1%
- viability, T/C (second compound 0.03 µM, first compound 0.00949 µM): 11.3%
- viability, T/C (second compound 0.03 µM, first compound 0.03 µM): 10%
- viability, T/C (second compound 0.03 µM, first compound 0.0949 µM): 5.57%
- viability, T/C (second compound 0.03 µM, first compound 0.3 µM): 7.99%
- viability, T/C (second compound 0.0949 µM, first compound 0.000949 µM): 101%
- viability, T/C (second compound 0.0949 µM, first compound 0.003 µM): 43.5%
- viability, T/C (second compound 0.0949 µM, first compound 0.00949 µM): 12.7%
- viability, T/C (second compound 0.0949 µM, first compound 0.03 µM): 4.87%
- viability, T/C (second compound 0.0949 µM, first compound 0.0949 µM): 7.25%
- viability, T/C (second compound 0.0949 µM, first compound 0.3 µM): 6.81%
- viability, T/C (second compound 0.3 µM, first compound 0.000949 µM): 66%
- viability, T/C (second compound 0.3 µM, first compound 0.003 µM): 34.3%
- viability, T/C (second compound 0.3 µM, first compound 0.00949 µM): 10%
- viability, T/C (second compound 0.3 µM, first compound 0.03 µM): 5.73%
- viability, T/C (second compound 0.3 µM, first compound 0.0949 µM): 6.03%
- viability, T/C (second compound 0.3 µM, first compound 0.3 µM): 4.48%

- IC50 (second compound 0.000949 µM): 156 nM
- IC50 (second compound 0.003 µM): 204 nM
- IC50 (second compound 0.00949 µM): 251 nM
- IC50 (second compound 0.03 µM): 284 nM
- IC50 (second compound 0.0949 µM): 190 nM
- IC50 (second compound 0.3 µM): 109 nM
SMILES: Nc1ccn(C2OC(CO)C(O)C2(F)F)c(=O)n1 (centres undefined) + CCn1c(-c2cccnc2C(C)OC)c2c3cc(ccc31)N1CCOC(CC(NC(=O)C(C(C)C)N(C)C(=O)C3(F)CCN(C(=O)C#CC(C)(C)N(C)C)CC3)C(=O)N3CCCC(N3)C(=O)OCC(C)(C)C2)C1
- viability, T/C (second compound 0.000949 µM, first compound 0.00316 µM): 112%
- viability, T/C (second compound 0.000949 µM, first compound 0.01 µM): 80.2%
- viability, T/C (second compound 0.000949 µM, first compound 0.0316 µM): 75.4%
- viability, T/C (second compound 0.000949 µM, first compound 0.1 µM): 56.8%
- viability, T/C (second compound 0.000949 µM, first compound 0.316 µM): 51.6%
- viability, T/C (second compound 0.000949 µM, first compound 1 µM): 14.4%
- viability, T/C (second compound 0.003 µM, first compound 0.00316 µM): 97.8%
- viability, T/C (second compound 0.003 µM, first compound 0.01 µM): 90.3%
- viability, T/C (second compound 0.003 µM, first compound 0.0316 µM): 79.3%
- viability, T/C (second compound 0.003 µM, first compound 0.1 µM): 67.1%
- viability, T/C (second compound 0.003 µM, first compound 0.316 µM): 39.6%
- viability, T/C (second compound 0.003 µM, first compound 1 µM): 11.8%
- viability, T/C (second compound 0.00949 µM, first compound 0.00316 µM): 85.3%
- viability, T/C (second compound 0.00949 µM, first compound 0.01 µM): 91%
- viability, T/C (second compound 0.00949 µM, first compound 0.0316 µM): 75.9%
- viability, T/C (second compound 0.00949 µM, first compound 0.1 µM): 79.8%
- viability, T/C (second compound 0.00949 µM, first compound 0.316 µM): 42.6%
- viability, T/C (second compound 0.00949 µM, first compound 1 µM): 15.6%
- viability, T/C (second compound 0.03 µM, first compound 0.00316 µM): 95.5%
- viability, T/C (second compound 0.03 µM, first compound 0.01 µM): 78.9%
- viability, T/C (second compound 0.03 µM, first compound 0.0316 µM): 69%
- viability, T/C (second compound 0.03 µM, first compound 0.1 µM): 69.4%
- viability, T/C (second compound 0.03 µM, first compound 0.316 µM): 53.4%
- viability, T/C (second compound 0.03 µM, first compound 1 µM): 10.1%
- viability, T/C (second compound 0.0949 µM, first compound 0.00316 µM): 79.5%
- viability, T/C (second compound 0.0949 µM, first compound 0.01 µM): 77.9%
- viability, T/C (second compound 0.0949 µM, first compound 0.0316 µM): 62.5%
- viability, T/C (second compound 0.0949 µM, first compound 0.1 µM): 65.2%
- viability, T/C (second compound 0.0949 µM, first compound 0.316 µM): 41.2%
- viability, T/C (second compound 0.0949 µM, first compound 1 µM): 11.2%
- viability, T/C (second compound 0.3 µM, first compound 0.00316 µM): 72.2%
- viability, T/C (second compound 0.3 µM, first compound 0.01 µM): 66.9%
- viability, T/C (second compound 0.3 µM, first compound 0.0316 µM): 59.6%
- viability, T/C (second compound 0.3 µM, first compound 0.1 µM): 51.8%
- viability, T/C (second compound 0.3 µM, first compound 0.316 µM): 36.5%
- viability, T/C (second compound 0.3 µM, first compound 1 µM): 12.6%
